Assay results reported in patent US20230069804A1, “METHODS AND COMPOSITIONS FOR MODULATING SPLICING” (SkyHawk Therapeutics, Inc., priority 2019, published 2023).
pEC50, pIC50: −log10 of the molar value.

Experiments:
SMN2 = assay: Quantitative splicing assay (SMN) in SMA patient fibroblasts GM03813; assay type: cell-based; conditions: Homo sapiens, Fibroblast, SMA patient fibroblasts GM03813, 24 h; for pIC50: read-out: SMN2 Potency - Splicing: Splicing D7 IC50 (average); for pEC50: read-out: SMN2 Potency - Splicing: Splicing FL EC50 (average)
Procedure: Spinal muscular atrophy (SMA) patient fibroblasts (GM03813, Coriell) are plated in 96-well plates at 50,000 cells/well. Immediately after plating, cells are dosed with compounds for 24 h at concentrations ranging from 2.5 μM to 0.6 nM (0.1% DMSO). Treated cells are lysed and cDNA synthesized using the Fast Advanced Cells-to-Ct kit (Thermofisher A35378) according to the manufacturer's instructions. 2 μL of each cDNA are used in qPCR reactions. The qPCR reactions are prepared in 384-well plates in 10 μL volume, using TaqMan™ Fast Advanced Master Mix (ThermoFisher; 4444965) with primers and probes shown in the table below. Reactions are run in a Quant Studio 6 qPCR instrument with default settings.
It is to be understood that the absolute stereochemistry for compounds of Table 3 is not determined.

SMN protein = SMN protein assay (MSD) in SMA patient fibroblasts GM03813; assay type: cell-based; conditions: Fibroblast, 48 h, SMA patient fibroblasts GM03813, 48 hours; read-out: SMN2 Potency - Protein: Protein FL EC50 (average)
Procedure: Compounds were tested on spinal muscular atrophy (SMA) patient fibroblasts (GM03813, Coriell) at doses ranging from 2.5 μM to 0.6 nM. 7000 cells/well were seeded in 96-well plates. Compounds were incubated for 48 hours and the cells were lysed with 100 μL of lysis buffer. 20 μL of lysate was used for SMN protein measurement by Mesoscale Discovery (MSD) assay developed by PharmOptima (Michigan). A standard curve prepared with SMN protein ranging from 1 μg/ml to 19.5 pg/ml was used in each MSD plate to calculate the absolute SMN protein amount in each sample.

[1] = tested on: MDR1-MDCK cell monolayers; assay: MDCK-MDR1 permeability assay (BBB penetration potential); assay type: in vitro ADME; conditions: 5 μM, 120 minutes, pH 7.4
Procedure: (§1) Each determination is performed in duplicate. […] Analytical conditions are outlined below.
(§2) Papp=(dCr/dt)×Vr/(A×CA) (1)

MDR1 = assay: as above; assay type: in vitro ADME; conditions: dog; for efflux ratio at 120 min, 5 μM: MDCK-MDR1, pH 7.4, Papp (B-to-A)/Papp (A-to-B), read-out: MDCK-MDR1: Efflux; for Papp A→B at 120 min, 5 μM / Papp B→A at 120 min, 5 μM: MDCK-MDR1, pH 7.4
Procedure: as §1, §2

SMILES	pIC50 (SMN2)	pEC50 (SMN2)	pEC50 (SMN protein)	MDCK-MDR1: % Recov A-B [1] [%]	MDCK-MDR1: % Recov B-A [1] [%]	efflux ratio at 120 min, 5 μM (MDR1)	Papp A→B at 120 min, 5 μM (MDR1) [×10⁻⁶ cm/s]	Papp B→A at 120 min, 5 μM (MDR1) [×10⁻⁶ cm/s]
COc1cc(-c2ccc(-c3nnc(N(C4CC4)[C@H]4C[C@@H]5CC[C@@H](N5)[C@H]4F)s3)c(O)c2)cc(F)n1 [Compound E-2B, 2-(5-(cyclopropyl((1R,2R,3S,5S)-2-fluoro-8-azabicyclo[3.2.1]octan-3-yl)amino)-1,3,4-thiadiazol-2-yl)-5-(2-fluoro-6-methoxypyridin-4-yl)phenol]	7.30 to 7.80	7.00 to 7.29	7.82 to 11.00	16	44	5	1.87	9.89
CN(c1nnc(-c2ccc(-c3cnn(C)c3)cc2O)s1)[C@H]1C[C@@H]2CC[C@@H](N2)[C@H]1F [Compound E-3A, 2-(5-(((1R,2R,3S,5S)-2-fluoro-8-azabicyclo[3.2.1]octan-3-yl)(methyl)amino)-1,3,4-thiadiazol-2-yl)-5-(1-methyl-1H-pyrazol-4-yl)phenol]	6.30 to 7.00	6.30 to 7.00	7.30 to 7.80	77	85	3	10.5	35.2
CN(c1nnc(-c2ccc(-c3cnn(C)c3)cc2O)s1)[C@@H]1C[C@H]2CC[C@H](N2)[C@@H]1F [Compound E-3B, 2-(5-(((1S,2S,3R,5R)-2-fluoro-8-azabicyclo[3.2.1]octan-3-yl)(methyl)amino)-1,3,4-thiadiazol-2-yl)-5-(1-methyl-1H-pyrazol-4-yl)phenol]	7.82 to 11.00	7.30 to 7.80	7.82 to 11.00	80	89	5	11.2	51.1
